Source: ChEMBL document CHEMBL1201862, “PubChem BioAssay data set” (2004)
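How tested: cells in 96-well plates exposed to compound for 48 hours at five concentrations. At the GI50, growth is halved.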 The source made the active and inactive calls. Cut-off read from the data, not from the text of the source: active = GI50 up to about 1.1 µM and inactive = higher.

What was measured:
Assay in all cases: NCI anticancer screen, dose series, 48 h
K562 = tested on: K562
COLO 205 = tested on: COLO 205
MDA-N = tested on: MDA-N
DU-145 = tested on: DU-145
MOLT-4 = tested on: MOLT-4
UO-31 = tested on: UO-31
NCI-H23 = tested on: NCI-H23
SW-620 = tested on: SW-620
NCI-H460 = tested on: NCI-H460
HCT-15 = tested on: HCT-15
SK-MEL-5 = tested on: SK-MEL-5
OVCAR-8 = tested on: OVCAR-8
OVCAR-5 = tested on: OVCAR-5
ACHN = tested on: ACHN
OVCAR-4 = tested on: OVCAR-4
NCI-H226 = tested on: NCI-H226
MCF7 = tested on: MCF7
HOP-62 = tested on: HOP-62
SNB-75 = tested on: SNB-75

Row | Compound | GI50 (K562) | GI50 (COLO 205) | GI50 (MDA-N) | GI50 (DU-145) | GI50 (MOLT-4) | GI50 (UO-31) | GI50 (NCI-H23) | GI50 (SW-620) | GI50 (NCI-H460) | GI50 (HCT-15) | GI50 (SK-MEL-5) | GI50 (OVCAR-8) | GI50 (OVCAR-5) | GI50 (ACHN) | GI50 (OVCAR-4) | GI50 (NCI-H226) | GI50 (MCF7) | GI50 (HOP-62) | GI50 (SNB-75)
1 | CC(=O)Oc1cc(S(=O)(=O)Nc2n[nH]c(Nc3ccc(C)cc3)n2)c(S)cc1Cl | 68.1 µM (inactive) | > 100 µM (inactive) | > 100 µM (inactive) | > 100 µM (inactive) | 83.2 µM (inactive) | > 100 µM (inactive) | > 100 µM (inactive) | > 100 µM (inactive) | > 100 µM (inactive) | > 100 µM | > 100 µM (inactive) | > 100 µM (inactive) | > 100 µM (inactive) | 54.8 µM (inactive) | > 100 µM (inactive) | – | – | – | –
2 | O=C(CCN1CCOCC1)Nc1ccc(F)cc1F | > 100 µM (inactive) | > 100 µM (inactive) | > 100 µM (inactive) | > 100 µM (inactive) | > 100 µM (inactive) | > 100 µM (inactive) | > 100 µM (inactive) | > 100 µM (inactive) | > 100 µM (inactive) | > 100 µM | > 100 µM (inactive) | > 100 µM (inactive) | > 100 µM (inactive) | > 100 µM (inactive) | > 100 µM (inactive) | > 100 µM (inactive) | > 100 µM (inactive) | > 100 µM (inactive) | –
3 | Nc1nc2c(C(=O)NCc3cccs3)nnn2c2cccc(Cl)c12 | > 100 µM (inactive) | > 100 µM (inactive) | > 100 µM (inactive) | > 100 µM (inactive) | 89.5 µM (inactive) | 87.5 µM (inactive) | 87.3 µM (inactive) | 91.2 µM (inactive) | > 100 µM (inactive) | > 100 µM | 92.3 µM (inactive) | 84.7 µM (inactive) | 45.3 µM (inactive) | > 100 µM (inactive) | > 100 µM (inactive) | 92 µM (inactive) | 53.8 µM (inactive) | > 100 µM (inactive) | –
4 | O=P1(Oc2ccccc2)N=P(c2ccccc2)(c2ccccc2)C=C(c2ccc(Cl)cc2)N1 (configuration not stated) | 5.43 µM (inactive) | 5.15 µM (inactive) | 8.87 µM (inactive) | 13.9 µM (inactive) | 5.18 µM (inactive) | 12 µM (inactive) | 15.3 µM (inactive) | 12.3 µM (inactive) | 5.14 µM (inactive) | 9.84 µM | 2.25 µM (inactive) | 14.4 µM (inactive) | 13.1 µM (inactive) | 13 µM (inactive) | – | – | 2.45 µM (inactive) | 16.4 µM (inactive) | –
5 | COC(=O)[C@@H]1CN(C(=O)CCc2ccccc2)C(=O)N1 | > 100 µM (inactive) | > 100 µM (inactive) | > 100 µM (inactive) | > 100 µM (inactive) | > 100 µM (inactive) | 50.2 µM (inactive) | > 100 µM (inactive) | > 100 µM (inactive) | 86.1 µM (inactive) | > 100 µM | > 100 µM (inactive) | > 100 µM (inactive) | > 100 µM (inactive) | > 100 µM (inactive) | > 100 µM (inactive) | > 100 µM (inactive) | – | > 100 µM (inactive) | –
6 | CC(=O)Nc1ccc(N2C(=O)/C(=C\c3cccc(Oc4ccccc4)c3)SC2c2ccccc2)cc1 (configuration not stated) | 33.1 µM (inactive) | 70.3 µM (inactive) | 18.9 µM (inactive) | 27.5 µM (inactive) | 27.9 µM (inactive) | 82.6 µM (inactive) | 26.1 µM (inactive) | 30.8 µM (inactive) | 50.7 µM (inactive) | 78.5 µM | 23.7 µM (inactive) | 17.1 µM (inactive) | > 100 µM (inactive) | 71 µM (inactive) | 32.4 µM (inactive) | 22 µM (inactive) | 21 µM (inactive) | 22.6 µM (inactive) | –
7 | COc1ccc(/N=C(C)/C(C)=N/c2ccc(OC)cc2)cc1 | 64.9 µM (inactive) | 14.4 µM (inactive) | – | 30.9 µM (inactive) | 15.6 µM (inactive) | 6.97 µM (inactive) | 73.6 µM (inactive) | 63.1 µM (inactive) | 20.3 µM (inactive) | 15.6 µM | 64 µM (inactive) | 58.6 µM (inactive) | > 100 µM (inactive) | 3.36 µM (inactive) | 17.7 µM (inactive) | > 100 µM (inactive) | > 100 µM (inactive) | > 100 µM (inactive) | > 100 µM (inactive)
8 | COC(=O)CN1SC2(SC13C(C)(C)C(=O)C3(C)C)C(C)(C)C(=O)C2(C)C | 52.6 µM (inactive) | 37.3 µM (inactive) | – | 31.5 µM (inactive) | 37 µM (inactive) | 86.3 µM (inactive) | > 100 µM (inactive) | 68.7 µM (inactive) | > 10 µM (inactive) | > 100 µM | 35.2 µM (inactive) | 64.4 µM (inactive) | > 100 µM (inactive) | > 100 µM (inactive) | > 100 µM (inactive) | 22.1 µM (inactive) | 54.2 µM (inactive) | 91 µM (inactive) | 37.8 µM (inactive)
9 | CC1=C[C@H]([C@H]2C=C(C)C(C(N)=O)=CN2Cc2c(Cl)cccc2Cl)N(Cc2c(Cl)cccc2Cl)C=C1C(N)=O | > 75 µM (inactive) | > 75 µM (inactive) | 48.9 µM (inactive) | > 75 µM (inactive) | > 75 µM (inactive) | > 75 µM (inactive) | > 75 µM (inactive) | > 75 µM (inactive) | > 75 µM (inactive) | > 75 µM | > 75 µM (inactive) | 52.7 µM (inactive) | > 75 µM (inactive) | > 75 µM (inactive) | 55.5 µM (inactive) | > 75 µM (inactive) | > 75 µM (inactive) | > 75 µM (inactive) | –
10 | CO/C(=N\N=C\c1ccccc1F)c1ccncc1 | > 10 µM (inactive) | > 10 µM (inactive) | > 10 µM (inactive) | > 10 µM (inactive) | > 10 µM (inactive) | > 10 µM (inactive) | > 10 µM (inactive) | > 10 µM (inactive) | > 10 µM (inactive) | > 10 µM | – | > 10 µM (inactive) | > 10 µM (inactive) | > 10 µM (inactive) | > 10 µM (inactive) | > 10 µM (inactive) | > 10 µM (inactive) | > 10 µM (inactive) | –
11 | COC1CC(OC(=O)c2ccccc2)C(OC(=O)c2ccccc2)C(C)O1 (configuration not stated) | > 100 µM (inactive) | > 100 µM (inactive) | > 100 µM (inactive) | > 100 µM (inactive) | > 100 µM (inactive) | > 100 µM (inactive) | > 100 µM (inactive) | > 100 µM (inactive) | > 100 µM (inactive) | > 100 µM | > 100 µM (inactive) | > 100 µM (inactive) | > 100 µM (inactive) | > 100 µM (inactive) | – | 85.1 µM (inactive) | > 100 µM (inactive) | > 100 µM (inactive) | –
12 | Cn1c2ccccc2c(=O)c2c(O)cc3c(c21)C=CC1(CCCC1)O3 | 3.51 µM (inactive) | > 100 µM (inactive) | – | > 100 µM (inactive) | > 100 µM (inactive) | – | 68.1 µM (inactive) | > 100 µM (inactive) | > 100 µM (inactive) | > 100 µM | > 100 µM (inactive) | > 100 µM (inactive) | 33.7 µM (inactive) | > 100 µM (inactive) | 41.7 µM (inactive) | > 100 µM (inactive) | > 100 µM (inactive) | 85.3 µM (inactive) | > 100 µM (inactive)
13 | NC(=S)c1cccc(C2Nc3ccccc3O2)c1 (configuration not stated) | 30.5 µM (inactive) | > 100 µM (inactive) | – | > 100 µM (inactive) | 41.7 µM (inactive) | > 100 µM (inactive) | 49.9 µM (inactive) | 75.7 µM (inactive) | 49.2 µM (inactive) | 21.9 µM | 23.5 µM (inactive) | > 100 µM (inactive) | > 100 µM (inactive) | 40.2 µM (inactive) | 31.5 µM (inactive) | 12.1 µM (inactive) | 56.9 µM (inactive) | > 100 µM (inactive) | > 100 µM (inactive)
14 | COc1ccc(C2=NNC(=O)c3ccccc3N2c2nc(-c3cccs3)nc3ccc(Br)cc23)cc1 | 99.5 µM (inactive) | 73.8 µM (inactive) | – | 39.9 µM (inactive) | 65.8 µM (inactive) | > 100 µM (inactive) | 31 µM (inactive) | 91.4 µM (inactive) | 40.4 µM (inactive) | 34.2 µM | > 100 µM (inactive) | 53.5 µM (inactive) | 61.4 µM (inactive) | 61.2 µM (inactive) | 39.8 µM (inactive) | 19.8 µM (inactive) | 68.1 µM (inactive) | 17.6 µM (inactive) | 41.4 µM (inactive)
15 | O=S(=O)(O)c1ccc2c(/N=N/c3cccc4ccccc34)c(O)ccc2c1 | > 100 µM (inactive) | > 100 µM (inactive) | > 100 µM (inactive) | > 100 µM (inactive) | > 100 µM (inactive) | > 100 µM (inactive) | > 100 µM (inactive) | > 100 µM (inactive) | – | > 100 µM | > 100 µM (inactive) | > 100 µM (inactive) | > 100 µM (inactive) | > 100 µM (inactive) | > 100 µM (inactive) | > 100 µM (inactive) | – | > 100 µM (inactive) | > 100 µM (inactive)
16 | C=CCN1C[C@@H](C)N([C@@H](c2ccc(C(=O)N(CC)CC)cc2)c2cccc(OC)c2)C[C@@H]1C | > 100 µM (inactive) | > 100 µM (inactive) | > 100 µM (inactive) | > 100 µM (inactive) | > 100 µM (inactive) | > 100 µM (inactive) | > 100 µM (inactive) | > 100 µM (inactive) | – | > 100 µM | > 100 µM (inactive) | > 100 µM (inactive) | > 100 µM (inactive) | > 100 µM (inactive) | > 100 µM (inactive) | > 100 µM (inactive) | 49.8 µM (inactive) | > 100 µM (inactive) | –
